Patent US20250346582A1, “SPLEEN TYROSINE KINASE INHIBITORS AND METHODS OF USE THEREOF” (THE BOARD OF TRUSTEES OF THE UNIVERSITY OF ILLINOIS, priority 2022, published 2025)
Read-outs that look alike come from different tables or passages of the source.

Legend:
Syk-cSH2 = biological target: T1, Syk-cSH2 (Homo sapiens, UniProt P43405); assay: Fluorescence quenching vesicle binding assay, Syk-cSH2
T1 construct: polyhistidine (N); made in house; host or cells: Escherichia coli BL21 (DE3) pLysS
Description: (§1) The membrane-binding assay is based on fluorescence quenching of EGFP fused to a SH2 domain by a dark quencher containing lipid, dabsyl-PE, incorporated in lipid vesicles. The plate reader assay was performed using the Synergy™ Neo spectrofluorometer at 25° C. Nontreated black polystyrene 96-well plates (Corning) were used. Protein (10-50 nM) with the increasing concentration of vesicles with a given lipid composition in 20 mM Tris buffer, pH 7.4, containing 0.16 M NaCl was added to each row of wells and the EGFP fluorescence emission at 516 nm was measured with excitation set at 485 nm. Z′ factor for the assay system was determined as described^74. Imax and IC50 values of inhibitors were determined using the equation, I=Imax/(1+IC50/[I]) where I and [I] indicate % inhibition and inhibitor concentration, respectively. The average and standard deviation values were obtained from triplicate determinations.
(§2) We also optimized a recently developed fluorescence quenching-based lipid-binding assay^47 for high-throughput screening of these molecules for their inhibitory activity against the PIP3-SH2 interaction. Specifically, we expressed SH2 domains as EGFP-tagged proteins and directly quantified their membrane binding by monitoring the quenching of EGFP fluorescence emission intensity by a dark quencher-containing lipid, N-dimethylaminoazo-benzenesulfonyl-phosphatidylethanolamine (dabsyl-PE), incorporated in the vesicles. We then screened for compounds that inhibited binding of Syk-cSH2, BLNK-SH2, and PLCγ2-cSH2, respectively, to 1-palmitoyl-2-oleoyl-PC (POPC)/1-palmitoyl-2-oleoyl-PS (POPS)/PIP3/dabsyl-PE (67:20:3:10) vesicles while eliminating those that inhibit their non-specific binding to anionic POPC/POPS/dabsyl-PE (70:20:10) vesicles. The quality of the screening system was evaluated using 1% dimethylsulfoxide (DMSO) and 20 μM D-myo-inositol-1,3,4,5-tetraphosphate (IP4) as negative and positive controls, respectively. The clear separation of positive and negative control data and the average Z′-factor of 0.7 supported the robustness of our system for high-throughput screen of PIP3-SH2 interaction inhibitors.

BLNK-SH2 = biological target: T2, BLNK-SH2 (Homo sapiens, UniProt Q8WV28); assay: Fluorescence quenching vesicle binding assay, BLNK-SH2; conditions: Table 2; BLNK-SH2 binding to POPC/POPS/PIP3/dabsyl-PE vesicles; read-out: Imax (%)
T2 construct: All SH2 domain constructs were cloned into the pRSET-B vector; polyhistidine (N); made in house; host or cells: Escherichia coli BL21 (DE3) pLysS
T2 sequence (Q8WV28 346-453 limits assumed): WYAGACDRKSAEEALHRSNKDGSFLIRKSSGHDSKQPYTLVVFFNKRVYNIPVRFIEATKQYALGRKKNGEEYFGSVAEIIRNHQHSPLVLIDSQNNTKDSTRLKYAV
Description: as §1, §2

PLCγ2-cSH2 = biological target: T3, PLCγ2-cSH2 (Homo sapiens, UniProt P16885); assay: Fluorescence quenching vesicle binding assay, PLCγ2-cSH2; conditions: Table 2, PLCγ2-cSH2 binding to POPC/POPS/PIP3/dabsyl-PE vesicles
T3 construct: polyhistidine (N); made in house; host or cells: Escherichia coli BL21 (DE3) pLysS
T3 sequence (P16885 646-735 limits assumed): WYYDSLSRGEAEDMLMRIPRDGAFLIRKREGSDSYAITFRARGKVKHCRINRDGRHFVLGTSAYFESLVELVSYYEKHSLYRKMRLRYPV
Description: as §1, §2

[1] = tested on: BCR signaling axis (Syk-BLNK-PLCγ2); assay: Western blot of BCR signaling axis in Raji B lymphocytes; format: cell-based; conditions: Raji B cells
Description: Cells were seeded at a density of 3.0×10^5 cells/well prior to incubation with inhibitors. Cells were incubated with 1-5 μM of Syk inhibitors overnight and stimulated with different antibodies: IgG2 for AML cells, IgM for Raji B cells, and OKT3 (Biolegend) for Jurkat cells. The cells were lysed in NP40 lysis buffer (50 mM Tris, pH 7.5, 150 mM NaCl, 1 mM EDTA, 1% NP40, 10% glycerol, 10 mM NaF, 10 mM Na3VO4, and the protease inhibitor cocktail) at 4° C. and the cell debris was removed by centrifugation. Samples were analyzed by SDS-PAGE. Proteins were separated and transferred to Immobilon-P polyvinylidene difluoride membrane (Millipore Sigma). The membrane was blocked with 5% bovine serum albumin for 1 h and incubated overnight at 4° C. with various antibodies (1:1000 dilution for all antibodies). After the unbound antibodies were removed by washing with 0.1% Tris buffer saline with 0.1% Tween20, the membranes were incubated with the horseradish peroxidase secondary antibody (1:5000 dilution) for 1 h at room temperature. The membranes were washed three more times with 0.1% Tris buffer saline with 0.1% Tween20 to remove the unbound horseradish peroxidase secondary antibody before imaging. The chemiluminescence intensity of protein bands in the gel was analyzed and documented by the Azure 500Q Imaging System.

[2] = Table 3, efficacy determined by the vesicle binding assay
[3] = Table 3, efficacy determined by the vesicle binding assay, read-out: IC50

SMILES | Imax (%) (Syk-cSH2; [2]) | IC50 (Syk-cSH2; [3]) [µM] | other results
CCOC(=O)NC(C(=O)OCC)c1cccc(Cl)n1 (centres unmarked) [VG370] |  |  | Imax (%) (Syk-cSH2; Table 2, Syk-cSH2 binding to POPC/POPS/PIP3/dabsyl-PE vesicles): <10%; Emax (BLNK-SH2): < 20%; IC50 (PLCγ2-cSH2): 0.68 ± 0.05 µM; Emax (PLCγ2-cSH2; read-out: Imax (%)): 40 to 50%; effect on phosphorylation of BCR signaling proteins (Syk, BLNK, PLCγ2) [1]: selectively suppressed phosphorylation of PLCγ2
[N-]=[N+]=C(C(=O)OC1CCCCC1)C(Nc1ncccn1)c1ccc(O)cc1 (centres unmarked) [WC = 42] | Imax (%) = 12 | 4 | 
COc1ccc(C(Nc2ncccn2)C(=[N+]=[N-])C(=O)OC2CCCCC2)cc1 (centres unmarked) [WC-30] | Imax (%) = 10 | 3.8 | 
[N-]=[N+]=C(C(=O)OC1CCCCC1)C(Nc1ncccn1)c1ccc(F)cc1 (centres unmarked) [WC-32] | Imax (%) = 10 | 5 | 
CN(C)c1ccc(C(Nc2ncccn2)C(=[N+]=[N-])C(=O)OC2CCCCC2)cc1 (centres unmarked) [WC-34] | Imax (%) = 10 | 2.8 | 
[N-]=[N+]=C(C(=O)OC1CCCCC1)C(Nc1ncccn1)c1cccs1 (centres unmarked) [WC-37] | Imax (%) = 15 | 2.8 | 
COc1cc(OC)cc(C(Nc2ncccn2)C(=[N+]=[N-])C(=O)OC2CCCCC2)c1 (centres unmarked) [WC-45] | Imax (%) = 12 | 3.6 | 
[N-]=[N+]=C(C(=O)OC1CCCCC1)C(Nc1ncccn1)c1ccccc1 (centres unmarked) [WC-46] | Imax (%) = 10 | 5 | 
CC(C)(C)OC(=O)C(=[N+]=[N-])C(Nc1ccccn1)c1ccc(Br)cc1 (centres unmarked) [WC-50] | Imax (%) = 10 | 4.5 | 
[N-]=[N+]=C(C(=O)OC1CCCCC1)C(Nc1ccccn1)c1ccc(O)c(Br)c1 (centres unmarked) [WC-52] | Imax (%) = 12 | 3.5 | 
Cc1ccc(C(Nc2ncccn2)C(=[N+]=[N-])C(=O)OC(C)(C)C)cc1 (centres unmarked) [WC-56] | Imax (%) ≤ 10 | 2 | 
COc1cc(C(Nc2ncccn2)C(=[N+]=[N-])C(=O)OC(C)(C)C)cc(OC)c1OC (centres unmarked) [WC-59] | Imax (%) ≤ 10 | 4 | 
[N-]=[N+]=C(C(=O)OC1CCCCC1)C(Nc1ccccn1)c1ccc(Br)cc1 (centres unmarked) [WC-62] | Imax (%) ≤ 10 | 5 | 
[N-]=[N+]=C(C(=O)OC1CCCCC1)C(Nc1ncccn1)c1ccc(Br)cc1 (centres unmarked) [WC-68] | Imax (%) ≤ 10 | 4.5 | 
[N-]=[N+]=C(C(=O)OC1CCCCC1)C(Nc1ncccn1)c1c(F)c(F)c(F)c(F)c1F (centres unmarked) [WC-70] | Imax (%) ≤ 10 | 2.5 | 
Cc1ccc(C(Nc2cnccn2)C(=[N+]=[N-])C(=O)OC2CCCCC2)cc1 (centres unmarked) [WC-73] | Imax (%) ≤ 10 | 8 | 
CCOP(=O)(OCC)C(=[N+]=[N-])C(Nc1ccccn1)c1ccc(C)cc1 (centres unmarked) [WC-75] | Imax (%) = 12 |  | IC50 (Syk-cSH2): 7 µM
Cc1ccc(C(CC(=O)OC2CCCCC2)Nc2ncccn2)cc1 (centres unmarked) [WC-79] | Imax (%) ≤ 10 | 10 | 
Cc1ccc(/C(=C/C(=O)OC2CCCCC2)Nc2cnccn2)cc1 [WC-80] | Imax (%) = > 10 | 15 | 

SMILES | Imax (%) (Syk-cSH2; [2]) | IC50 (Syk-cSH2; [3]) [µM] | other results
CCOP(=O)(/C=C(\Nc1ccccn1)c1ccc(C)cc1)OCC [WC-85] | Imax (%) ≤ 10 |  | IC50 (Syk-cSH2): 12 µM
CCOC(=O)/C=C(\NS(=O)(=O)c1ccccc1)c1ccc(C)cc1 [WC-90] | Imax (%) ≤ 10 | 20 | 
Cc1ccc(C(Nc2ncc(C)s2)C(=[N+]=[N-])C(=O)OC2CCCCC2)cc1 (centres unmarked) [WC-92] | Imax (%) = 15 | 10 | 
Cc1ccc(C(Nc2cc(C)ccn2)C(=[N+]=[N-])C(=O)OC2CCCCC2)cc1 (centres unmarked) [WC-95] | Imax (%) ≤ 10 | 5 | 
Cc1ccc(C(Nc2ncccn2)C(=[N+]=[N-])C(=O)OC2CCCC2)cc1 (centres unmarked) [WC-100] | Imax (%) = 18 | 2 | 
Cc1ccc(C(Nc2ncccn2)C(=[N+]=[N-])C(=O)ON2CCC(C)CC2)cc1 (centres unmarked) [WC-105] | Imax (%) = 15 | 4 | 
Cc1ccc(C(Nc2ncccn2)C(=[N+]=[N-])C(=O)ON2CCOCC2)cc1 (centres unmarked) [WC-108] | Imax (%) = 20 | 2 | 
Cc1ccc(C(Nc2ncccn2)C(=[N+]=[N-])C(=O)ON2CCN(C)CC2)cc1 (centres unmarked) [WC-109] | Imax (%) = 25 | 2 | 
CCOC(=O)C(=[N+]=[N-])C(Nc1ccccn1)c1ccccc1 (centres unmarked) [WC-110] | Imax (%) ≤ 10 | 5 | 
CCOC(=O)C(=[N+]=[N-])C(Nc1ccccn1)c1ccc(O)cc1 (centres unmarked) [WC-111] | Imax (%) ≤ 10 | 7 | 
CCOC(=O)C(=[N+]=[N-])C(Nc1ncccn1)c1ccc(O)cc1 (centres unmarked) [WC-115] | Imax (%) = 20 | 2 | 
[N-]=[N+]=C(C(=O)OC1CCCC1)C(Nc1ccccn1)c1ccccc1 (centres unmarked) [WC-118] | Imax (%) = 15 | 4 | 
[N-]=[N+]=C(C(=O)OC1CCCC1)C(Nc1ncccn1)c1ccc(C(F)(F)F)cc1 (centres unmarked) [WC-120] | Imax (%) = 20 | 4 | 
CCOC(=O)C(=[N+]=[N-])C(Nc1ccccn1)c1ccc(C(F)(F)F)cc1 (centres unmarked) [WC-121] | Imax (%) ≤ 10 | 4.8 | 
[N-]=[N+]=C(C(=O)OC1CCCCC1)C(Nc1cnccn1)c1cccnc1 (centres unmarked) [WC-125] | Imax (%) = 20 | 1.5 | 
CCOC(=O)C(=[N+]=[N-])C(Nc1ccccn1)c1cccnc1 (centres unmarked) [WC-128] | Imax (%) = 18 | 3.5 | 
[N-]=[N+]=C(C(=O)OC1CCCCC1)C(Nc1ncccn1)c1ccncc1 (centres unmarked) [WC-130] | Imax (%) = 25 | 2 | 
[N-]=[N+]=C(C(=O)OC1CCCCC1)C(C=Cc1ccccc1)Nc1ncccn1 (centres unmarked) [WC-132] | Imax (%) = 15 | 5 | 
